Experimental data published in ChEMBL document CHEMBL1136381, “Discovery of novel low molecular weight inhibitors of IMPDH via virtual needle screening” (Bioorg Med Chem Lett, 2003).

Biological target: Inosine-5'-monophosphate dehydrogenase (IMPDH) (Homo sapiens, UniProt P20839+P12268)
Experiment: Inhibitory activity against (IMPDH) inosine 5'-monophosphate dehydrogenase
Assay type: protein assay

Compound	IC50
COc1cc(NC(=O)C(=O)NC(C)(C)C)ccc1-c1cnco1	0.04 µM
COc1cc(NC(=O)C(=O)NC(C)(C)C)ccc1-c1nc[nH]n1	15 µM
CC(C)(C)NC(=O)C(=O)Nc1ccc(-c2cnco2)c(C(F)(F)F)c1	18 µM
CC(C)(C)NC(=O)C(=O)Nc1ccc(-c2cnco2)cc1	20 µM
COc1cc(NC(=O)C(=O)NC(C)(C)C)ccc1-c1cncs1	0.91 µM
COc1ccc(NC(=O)C(=O)NC(C)(C)C)cc1-c1cnco1	16 µM
Cc1ncoc1-c1ccc(NC(=O)C(=O)NC(C)(C)C)cc1	14 µM
CC(C)(C)NC(=O)C(=O)Nc1ccc(-c2cnco2)c(F)c1	0.73 µM
N#Cc1c[nH]c2ccccc12	32 µM
Nc1ccnc2cc(Cl)ccc12	168 µM
COc1ccc(NC(=O)C(=O)NC(C)(C)C)cc1OC	21 µM
CCOc1cc(NC(=O)C(=O)NC(C)(C)C)ccc1-c1cnco1	1.3 µM
COc1cc(NC(=O)C(=O)NC(C)(C)C)ccc1-c1ocnc1C	0.43 µM
COc1cc(NC(=O)C(=O)NC(C)(C)C)ccc1-c1ocnc1Cc1ccccc1	35 µM
Oc1cccc2[nH]c3ccccc3c12	54 µM

Other lines, results leading:

IC50	Compound
32 µM	COc1ccc2[nH]cc(C(=O)CSc3ccncc3)c2c1
27 µM	CCCCc1ncoc1-c1ccc(NC(=O)C(=O)NC(C)(C)C)cc1OC
620 µM	CC(=O)c1ccc(O)cc1C
2.4 µM	COc1cc(NC(=O)C(=O)NC(C)(C)C)ccc1-c1ccc[nH]1
88 µM	Cc1cc2c(cc1C)C(=O)C(C#N)CO2 (centres undefined)
99 µM	N#Cc1ccc2[nH]ccc2c1
0.2 µM	Cc1cc(NC(=O)C(=O)NC(C)(C)C)ccc1-c1cnco1
19 µM	COc1cc(N)ccc1-c1cnco1
1.2 µM	CCc1cc(NC(=O)C(=O)NC(C)(C)C)ccc1-c1cnco1
31 µM	COc1ccc(C#N)c2ccccc12
0.47 µM	COc1cc(NC(=O)C(=O)NC(C)(C)C)ccc1-c1cocn1
4.4 µM	CC(C)(C)NC(=O)C(=O)Nc1ccc(-c2cnco2)c(O)c1
8.1 µM	COc1cc(NC(=O)C(=O)NC(C)(C)C)ccc1-c1ccco1
0.18 µM	CC(C)(C)NC(=O)C(=O)Nc1ccc(-c2cnco2)c(Cl)c1
